Assay results: patent US12410407B2, “Choroid plexus organoids and methods for production thereof” (UNITED KINGDOM RESEARCH AND INNOVATION, priority 2019, dated 2025)
Read-outs that look alike come from different tables or passages of the source. Marks after values point to notes of the source that are not given here. Each block holds one compound with its values, some of them ahead of it.

How the values were obtained:
[1] = tested on: ChP epithelial barrier; design: Km, uu, iCSF: unit not given beside the values
[2] = cited from earlier work
[3] = In vivo drug levels in CSF and blood plasma, and unbound CSF to plasma ratio (literature data); design: species or system humans; conditions: human, calculated from literature values (Qalb 0.005)
Description: For comparison between in vitro and in vivo levels of small molecules in CSF, in vivo unbound CSF to blood plasma ratio, Kp,uu,CSF, was calculated as the ratio of the unbound drug in CSF (Cu,CSF) to that in blood plasma (Cu,p) similar to previously described (7) (eq A). The amount of unbound drug in each of CSF and plasma is the product of the total drug concentration (Cp) or (CCSF) and the fraction of drug that is unbound (fu,p) or (fu,CSF)(eqs B and C). Cp, CCSF, and fu,p were taken from literature (Table S2). However, because of the difficulty in obtaining large amounts of CSF, for most drugs fu,CSF is not known.

[4] = in vivo, from literature, cited from earlier work
[5] = six trial participants, one of whom died; cited from earlier work
[6] = tested on: ChP epithelial barrier; test: ChP organoid small-molecule permeability, NMR analysis of media and iCSF; conditions: for Presence in iCSF by NMR: after 2h incubation, 500 μM, L-Dopa in the presence of Carbidopa
Description: On day 5 media was replaced with NI media in the same 96-well. After two days EBs were embedded in 20 μl matrigel using sheets of dimpled parafilm and incubated for 20 min at 37° C. as previously described (2). EBs were then transferred to a 6-well plate with 3 ml of Expansion media per well. For ChP patterning, on day 10 treatment with 3 μM CHIR and 20 ng/ml BMP4 in Maturation media was used keeping a maximum number of 6 EBs in each 5 cm dish. The treatment was kept for 7 days in maturation media. On day 15 organoids were moved to an incubator with a shaker and were fed every 3-4 days with maturation media. From day 30 dissolved matrigel (1:50) was added to the maturation media.
For NMR experiments, ChP organoids were incubated in complete IDM+A media without phenol red and 1:50 Geltrex (Gibco, A14132-02) for 2 h, 12h, 24 h, 48h or 72h. Organoid media and iCSF were collected and centrifuged at 500 g for 5 min to remove debris. ^1H-NMR spectra were acquired using a Bruker Ultrashield 400 Plus operating at 400.1 MHz. Samples consisting of H2O/D2O mixtures were analyzed using HOD suppression to collect ^1H-NMR data. Chemical shifts (6) are shown in ppm. The yields of conversion were determined by relative integration of the signals in the ^1H-NMR spectra. Data analysis was performed using MestReNova (version 7.0) and GraphPad Prism (version 7.0b).
Because the NMR measurements of in vitro fluids detected unbound drug, the ratio (Km,uu,iCSF) was a simple function of the ratio of drug in in vitro CSF (Cu,iCSF) to drug in media (Cu,m) (eq E).
Thus, in order to test for such selective permeability to small molecules, we applied various therapeutically relevant small molecules and assayed their permeability by NMR analysis of organoid iCSF. […] We incubated the organoids with Dopa and with L-Dopa in the presence of Carbidopa, a small molecule that prevents the conversion of L-Dopa into Dopa (34, 35).

[7] = tested on: protein misfolding; conditions: mouse model of Charcot-Marie Tooth-1B; cited from earlier work
[8] = cited from earlier work; remark: listed apart in the source
[9] = in vivo data from mouse
Source text: Pre-clinical or clinical data of this molecule in humans are not yet available, but Phase I clinical trials are under way so any additional human in vitro data would be informative.

[10] = unbound concentrations reported, average of two measurements
[11] = total drug concentration in blood plasma
[12] = in vivo data from mouse, estimate from graph in reference
[13] = total drug concentration in CSF

- Km, uu, iCSF [1]: 0.10
- Kp uu [3]: 0.185
SMILES: NCCc1ccc(O)c(O)c1 [Dopamine]
- Entry into brain/CSF in vivo as established in the literature [2]: doesn't enter the brain in vivo
- CCSF ([4]; Δ upon injection): 9.01 ng/mL
- Cp ([4]; Δ upon injection): 67.4 ng/mL

- Kp uu [3]: 0.042
SMILES: CC[C@]1(O)C[C@H]2CN(CCc3c([nH]c4ccccc34)[C@@](C(=O)OC)(c3cc4c(cc3OC)N(C=O)[C@H]3[C@@](O)(C(=O)OC)[C@H](OC(C)=O)[C@]5(CC)C=CCN6CC[C@]43[C@@H]65)C2)C1 [Vincristine]
- Entry into brain/CSF in vivo as established in the literature [2]: poorly cross the BBB
- CCSF [4, 10]: 0.855 nM
- Cp [4, 10]: 0.0205 µM

- Km, uu, iCSF [1]: 1.07
SMILES: CC(NC(C)(C)C)C(=O)c1cccc(Cl)c1 (stereo not drawn) [Bupropion]
- Cp [4, 11]: 29.8 ng/mL

- Time course of the ratio in iCSF to media ([6]; 2 h, 12h, 24 h and 72h): continued to accumulate in the iCSF
- Presence in iCSF by NMR [6]: able to cross the ChP epithelial barrier
SMILES: CN(C(=O)n1cnc(-c2ccc[n+]([O-])c2)c1)C1CCCCC1 [BIA-10-2474]
- Adverse effects in Phase I clinical trials [5]: severe neurotoxicity

- Kp, uu, CSF (total compound brain to plasma ratio) [9]: 10^#
- Permeability in the human organoid model compared with the mouse model ([6]; 2h incubation, compared with published mouse data): much lower
- Presence in iCSF by NMR [6]: detectable
SMILES: NC(N)=N/N=C/c1ccccc1Cl [Sephin 1]
- CNS effect against protein misfolding [7]: protective CNS role against protein misfolding
- CCSF [8, 12]: ~110 ng/g
- Cp [8, 12]: ~11 ng/mL
- BBB crossing in mouse ([8]; mouse): cross the BBB

- Km, uu, iCSF [1]: 0.01
- Kp uu [3]: 0.04
SMILES: CN(Cc1cnc2nc(N)nc(N)c2n1)c1ccc(C(=O)N[C@@H](CCC(=O)O)C(=O)O)cc1 [Methotrexate]
- Entry into brain/CSF in vivo as established in the literature [2]: poorly cross the BBB
- CCSF [4, 13]: 270 nM
- Cp [4, 11]: 15.8 µM

- iCSF/media ratio, L-Dopa compared to Dopa [1]: consistently higher
SMILES: N[C@@H](Cc1ccc(O)c(O)c1)C(=O)O [L-DOPA, Levodopa]
- Entry into brain/CSF in vivo as established in the literature [2]: actively transported in to the CSF via the LAT-1 transporter
- CCSF [4, 13]: ~150 ng/mL
- Cp [4, 11]: ~400 ng/mL
